BindingDB's records for doi:10.7270/Q2PR7TCX (The Scripps Research Institute Molecular Screening Center, 2007)

Target: Steroidogenic factor 1 (Homo sapiens, UniProt Q13285)
Assay: SF-1 inhibitors in Gal4 reporter counter-screen, dose response, counter-screen for RORA inhibitor project, cell-based, CHO-K1, Gal4-SF-1 LBD, luciferase luminescence (AID 611)
Details: not given

Steroidogenic factor 1, sequence (Q13285 whole entry, the tested form may be a part): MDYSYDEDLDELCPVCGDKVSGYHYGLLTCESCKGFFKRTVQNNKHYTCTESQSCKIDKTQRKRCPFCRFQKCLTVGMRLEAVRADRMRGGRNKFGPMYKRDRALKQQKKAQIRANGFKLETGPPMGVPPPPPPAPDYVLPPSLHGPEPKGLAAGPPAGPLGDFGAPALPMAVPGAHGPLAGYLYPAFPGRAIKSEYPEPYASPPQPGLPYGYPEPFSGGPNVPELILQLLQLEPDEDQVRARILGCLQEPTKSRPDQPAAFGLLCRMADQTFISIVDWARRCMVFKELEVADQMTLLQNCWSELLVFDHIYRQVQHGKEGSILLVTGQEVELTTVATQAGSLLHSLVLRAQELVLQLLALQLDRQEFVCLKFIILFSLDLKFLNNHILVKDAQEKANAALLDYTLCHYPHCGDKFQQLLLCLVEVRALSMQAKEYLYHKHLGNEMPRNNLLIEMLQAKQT

| Structure (SMILES) | IC50 |
| --- | --- |
| Cc1ccc(-c2cc3c(nn2)-c2ccccc2C3=O)cc1 [3-(4-methylphenyl)-5H-indeno[1,2-c]pyridazin-5-one] | 2.62 µM |
| COc1cc(OC)cc(-c2cc3nc(C)c(CCC(=O)O)c(C)n3n2)c1 [3-[2-(3,5-dimethoxyphenyl)-5,7-dimethyl-6-pyrazolo[1,5-a]pyrimidinyl]propanoic acid] | 0.74 µM |
| CN(C)C(=O)CCc1nc(-c2ccc(C(C)(C)C)cc2)no1 [3-[3-(4-tert-butylphenyl)-1,2,4-oxadiazol-5-yl]-N,N-dimethyl-propanamide] | 1.1 µM |
| CCNC(=O)CCc1nc(-c2ccc(C(C)(C)C)cc2)no1 [3-[3-(4-tert-butylphenyl)-1,2,4-oxadiazol-5-yl]-N-ethyl-propanamide] | 0.0417 µM |
| CNC(=O)CCc1nc(-c2ccc(C(C)(C)C)cc2)no1 [3-[3-(4-tert-butylphenyl)-1,2,4-oxadiazol-5-yl]-N-methyl-propanamide] | 0.075 µM |
| CC(C)(C)c1ccc(-c2noc(CCC(N)=O)n2)cc1 [3-[3-(4-tert-butylphenyl)-1,2,4-oxadiazol-5-yl]propanamide] | 0.063 µM |
| O=C(O)c1cccc(COc2ccccc2Cl)c1 [3-[(2-chloranylphenoxy)methyl]benzoic acid] | 0.582 µM |
| O=C(O)c1cccc(COc2ccc(CO)cc2Cl)c1 [3-[(2-chloro-4-methylol-phenoxy)methyl]benzoic acid] | 0.329 µM |
| Cc1cc(C(=O)Nc2cccc(C(=O)O)c2)oc1C [3-[(4,5-dimethyl-2-furoyl)amino]benzoic acid] | 2.16 µM |
| CCOc1ccc(OCc2cccc(C(=O)O)c2)cc1 [3-[(4-ethoxyphenoxy)methyl]benzoic acid] | 0.274 µM |
| COc1ccc(OCc2cccc(C(=O)O)c2)cc1 [3-[(4-methoxyphenoxy)methyl]benzoic acid] | 0.37 µM |
| O=C(c1ccc(Cl)cc1)N1CCCCC(Sc2nnc(-c3ccc4c(c3)OCO4)o2)C1=O (stereo not drawn) [3-[[5-(1,3-benzodioxol-5-yl)-1,3,4-oxadiazol-2-yl]sulfanyl]-1-(4-chlorobenzoyl)azepan-2-one] | 1.46 µM |
| Cc1cc(C)cc(Nc2ccc(C(=O)O)cc2N)c1 [3-amino-4-(3,5-dimethylanilino)benzoic acid] | > 99 µM |
| Cc1ccsc1C(=O)OCC(=O)c1cc(C)n(CC2CCCO2)c1C (stereo not drawn) [3-methyl-2-thiophenecarboxylic acid [2-[2,5-dimethyl-1-(2-oxolanylmethyl)-3-pyrrolyl]-2-oxoethyl] ester] | > 0.0453 µM |
| Clc1ccc(-n2ncc3c(N4CCCCCC4)ncnc32)cc1 [4-(1-azepanyl)-1-(4-chlorophenyl)pyrazolo[3,4-d]pyrimidine] | 0.846 µM |
| Cc1ccnc(NC(=O)CCCOc2cc(=O)n(C)c3ccccc23)c1 [4-(1-methyl-2-oxidanylidene-quinolin-4-yl)oxy-N-(4-methylpyridin-2-yl)butanamide] | 8.98 µM |
| COc1ccc(-c2cc(C(F)(F)F)nc(S(C)(=O)=O)n2)cc1OC [4-(3,4-dimethoxyphenyl)-2-methylsulfonyl-6-(trifluoromethyl)pyrimidine] | 7.15 µM |
| COC(=O)c1ccc(-c2nc(-c3cccs3)no2)cc1 [4-(3-thiophen-2-yl-1,2,4-oxadiazol-5-yl)benzoic acid methyl ester] | > 3.67 µM |
| CCOc1ccc(-c2cc(CCCC(=O)NCCc3ccc(OC)c(OC)c3OC)no2)cc1 [4-(5-p-phenetylisoxazol-3-yl)-N-[2-(2,3,4-trimethoxyphenyl)ethyl]butyramide] | 6.37 µM |
| Cc1ccc2[nH]c3c(N4CCCCCC4)ncnc3c2c1 [4-(azepan-1-yl)-8-methyl-5H-pyrimido[5,4-b]indole] | 7.45 µM |
| CC1CCCCC1NS(=O)(=O)c1ccc(S(=O)(=O)NCc2ccncc2)cc1 (stereo not drawn) [4-N-(2-methylcyclohexyl)-1-N-(pyridin-4-ylmethyl)benzene-1,4-disulfonamide] | 8.38 µM |
| CCN(C1CCCCC1)S(=O)(=O)c1ccc(S(=O)(=O)NCc2ccncc2)cc1 [4-N-cyclohexyl-4-N-ethyl-1-N-(pyridin-4-ylmethyl)benzene-1,4-disulfonamide] | 9.51 µM |
| Cc1cccc(-n2ncc3c(N4CCOCC4)ncnc32)c1 [4-[1-(3-methylphenyl)-4-pyrazolo[3,4-d]pyrimidinyl]morpholine] | > 3.67 µM |

| Structure (SMILES) | IC50 |
| --- | --- |
| CCOC(=O)N1CCN(C(=O)C2CCN(c3ncnc4c3sc3cccc(F)c34)CC2)CC1 [4-[1-(9-fluorobenzothiopheno[3,2-d]pyrimidin-4-yl)isonipecotoyl]piperazine-1-carboxylic acid ethyl ester] | 6.51 µM |
| COc1ccc(OC)c(Nc2nc(-c3ccc(O)c(O)c3)cs2)c1 [4-[2-(2,5-Dimethoxy-phenylamino)-thiazol-4-yl]-benzene-1,2-diol] | 7.17 µM |
| COc1ccccc1-c1nnc2sc(-c3ccc(N(C)C)cc3)nn12 [4-[3-(2-methoxyphenyl)-[1,2,4]triazolo[3,4-b][1,3,4]thiadiazol-6-yl]-N,N-dimethyl-aniline] | 3.24 µM |
| COc1ccc(-c2noc(CCCC(=O)O)n2)cc1 [4-[3-(4-methoxyphenyl)-1,2,4-oxadiazol-5-yl]butanoic acid] | 2.72 µM |
| Cc1ccc(-c2noc(CCCC(=O)Nc3cccnc3)n2)cc1 [4-[3-(4-methylphenyl)-1,2,4-oxadiazol-5-yl]-N-(3-pyridinyl)butanamide] | 8.03 µM |
| Fc1ccc2[nH]c3c(N4CCN(Cc5ccc6c(c5)OCO6)CC4)ncnc3c2c1 [4-[4-(1,3-benzodioxol-5-ylmethyl)-1-piperazinyl]-8-fluoro-5H-pyrimido[5,4-b]indole] | 3.38 µM |
| COc1ccc2c(c1)[nH]c1c(N3CCN(Cc4ccc5c(c4)OCO5)CC3)ncnc12 [4-[4-(1,3-benzodioxol-5-ylmethyl)piperazin-1-yl]-7-methoxy-5H-pyrimido[5,4-b]indole] | 7.25 µM |
| COc1ccccc1-c1cc(C(F)(F)F)nc(S(=O)(=O)CCCC(=O)NC(C)C)n1 [4-[4-(2-methoxyphenyl)-6-(trifluoromethyl)pyrimidin-2-yl]sulfonyl-N-propan-2-yl-butanamide] | 9.35 µM |
| COc1cccc(N2CCN(c3ncnc4c3[nH]c3ccccc34)CC2C)c1 (stereo not drawn) [4-[4-(3-methoxyphenyl)-3-methyl-1-piperazinyl]-5H-pyrimido[5,4-b]indole] | 4.85 µM |
| Clc1ccc(OCCN2CCN(c3ncnc4sccc34)CC2)cc1 [4-[4-[2-(4-chloranylphenoxy)ethyl]piperazin-1-yl]thieno[2,3-d]pyrimidine] | 1.44 µM |
| CCOc1ccc(-c2cc(CCCC(=O)NCCCOC)no2)cc1 [4-[5-(4-ethoxyphenyl)-1,2-oxazol-3-yl]-N-(3-methoxypropyl)butanamide] | 2.64 µM |
| CCOc1ccc(-c2cc(CCCC(=O)NCc3ccco3)no2)cc1 [4-[5-(4-ethoxyphenyl)-1,2-oxazol-3-yl]-N-(furan-2-ylmethyl)butanamide] | > 11 µM |
| CCOC(=O)N1CCC(NC(=O)C2CCCN(Cc3nc(-c4cccc(Cl)c4)oc3C)C2)CC1 (stereo not drawn) [4-[[1-[[2-(3-chlorophenyl)-5-methyl-oxazol-4-yl]methyl]nipecotoyl]amino]piperidine-1-carboxylic acid ethyl ester] | 6.81 µM |
| COc1cc(CN=O)ccc1OCc1ccc(C(=O)O)cc1 [4-[[4-(hydroximinomethyl)-2-methoxy-phenoxy]methyl]benzoic acid] | 0.675 µM |
| CCN(CC)c1ccc2cc(NC(=O)CCC(=O)O)c(=O)oc2c1 [4-[[7-(diethylamino)-2-keto-chromen-3-yl]amino]-4-keto-butyric acid] | 6.07 µM |
| CC(=O)c1c(C)[nH]c(C(=O)OCCCCN2C(=O)c3ccccc3C2=O)c1C [4-acetyl-3,5-dimethyl-1H-pyrrole-2-carboxylic acid 4-(1,3-dioxo-2-isoindolyl)butyl ester] | 5.04 µM |
| CCCCOc1ncnc2c1[nH]c1ccc(F)cc12 [4-butoxy-8-fluoranyl-5H-pyrimido[5,4-b]indole] | 4.2 µM |
| Cc1ccccc1NC(=O)c1cnc2ccccn2c1=O [4-keto-N-(o-tolyl)pyrido[1,2-a]pyrimidine-3-carboxamide] | > 11 µM |
| Cc1ccc(-c2cnc(NC(=O)CCC(=O)N3CCCCC3)n2C)cc1 [4-keto-N-[1-methyl-5-(p-tolyl)imidazol-2-yl]-4-piperidino-butyramide] | > 99.1 µM |
| COc1ccc(C(=O)Nn2c(SCC(=O)NCC3CCCO3)nc3ccccc3c2=O)cc1 (stereo not drawn) [4-methoxy-N-[4-oxidanylidene-2-[2-oxidanylidene-2-(oxolan-2-ylmethylamino)ethyl]sulfanyl-quinazolin-3-yl]benzamide] | 4.51 µM |
| COc1ccc(C(=O)NC(=O)Nc2cc(C)ccn2)cc1 [4-methoxy-N-[(4-methyl-2-pyridyl)carbamoyl]benzamide] | 3.29 µM |
| CCOc1ccc(OCc2cccc(C(=O)N3CCOCC3)c2)cc1 [4-{3-[(4-ethoxyphenoxy)methyl]benzoyl}morpholine] | 4.35 µM |

Same assay, conditions: inactive by the depositor's call

| Structure (SMILES) | IC50 |
| --- | --- |
| O=C(O)CCSc1nc2ccccc2s1 [3-(Benzothiazol-2-ylsulfanyl)-propionic acid] | 19.1 µM |
| Cc1ccccc1NC(=O)N1CCCC(c2nc(-c3ccc(C(C)C)cc3)no2)C1 (stereo not drawn) [3-[3-(4-Isopropyl-phenyl)-[1,2,4]oxadiazol-5-yl]-piperidine-1-carboxylic acid o-tolylamide] | 12.4 µM |
| Cc1nc2sccn2c1-c1csc(NCc2ccccc2)n1 [4-(6-methyl-5-imidazo[2,1-b]thiazolyl)-N-(phenylmethyl)-2-thiazolamine] | 11.1 µM |
| CCCCN(CCCC)S(=O)(=O)c1ccc(C(=O)Nc2nnc(CSC)o2)cc1 [4-(dibutylsulfamoyl)-N-[5-(methylsulfanylmethyl)-1,3,4-oxadiazol-2-yl]benzamide] | 24.4 µM |
| Cc1ccc(S(=O)(=O)NCc2ccncc2)cc1 [4-Methyl-N-pyridin-4-ylmethyl-benzenesulfonamide] | 11.6 µM |
| COc1ccccc1-c1cc(C(F)(F)F)nc(S(=O)(=O)CCCC(=O)Nc2cc(C)on2)n1 [4-[4-(2-methoxyphenyl)-6-(trifluoromethyl)pyrimidin-2-yl]sulfonyl-N-(5-methyl-1,2-oxazol-3-yl)butanamide] | 13.2 µM |
| Cc1ccc2nc(C(F)(F)F)c(C#N)c(N)c2c1 [4-amino-6-methyl-2-(trifluoromethyl)-3-quinolinecarbonitrile] | 11.6 µM |
| Cc1ccc(S(=O)(=O)Nc2ccc3ncccc3c2)cc1 [4-methyl-N-(6-quinolinyl)benzenesulfonamide] | 12.4 µM |
